Experimental data taken from publication PMC1774582, “Choroid plexus epithelial monolayers – a cell culture model from porcine brain” (Cerebrospinal Fluid Research, 2006).
Each block holds one compound with its values, some of them ahead of it.

Assays:
[1] = test system: choroid plexus epithelial cells
Mrp1 [2] = test system: Mrp1; set-up: method as in PMID 10675353; conditions: animals lacking Mrp1 ref 49; cited from earlier work
Mrp1 [3] = target: Mrp1 (Sus scrofa, UniProt K9IVJ9); conditions: 2 μM FL-MTX, CPEC; direction taken from paragraph and Figure 10B
Sequence of Mrp1 (Sus scrofa, UniProt K9IVJ9) (K9IVJ9 1-1532): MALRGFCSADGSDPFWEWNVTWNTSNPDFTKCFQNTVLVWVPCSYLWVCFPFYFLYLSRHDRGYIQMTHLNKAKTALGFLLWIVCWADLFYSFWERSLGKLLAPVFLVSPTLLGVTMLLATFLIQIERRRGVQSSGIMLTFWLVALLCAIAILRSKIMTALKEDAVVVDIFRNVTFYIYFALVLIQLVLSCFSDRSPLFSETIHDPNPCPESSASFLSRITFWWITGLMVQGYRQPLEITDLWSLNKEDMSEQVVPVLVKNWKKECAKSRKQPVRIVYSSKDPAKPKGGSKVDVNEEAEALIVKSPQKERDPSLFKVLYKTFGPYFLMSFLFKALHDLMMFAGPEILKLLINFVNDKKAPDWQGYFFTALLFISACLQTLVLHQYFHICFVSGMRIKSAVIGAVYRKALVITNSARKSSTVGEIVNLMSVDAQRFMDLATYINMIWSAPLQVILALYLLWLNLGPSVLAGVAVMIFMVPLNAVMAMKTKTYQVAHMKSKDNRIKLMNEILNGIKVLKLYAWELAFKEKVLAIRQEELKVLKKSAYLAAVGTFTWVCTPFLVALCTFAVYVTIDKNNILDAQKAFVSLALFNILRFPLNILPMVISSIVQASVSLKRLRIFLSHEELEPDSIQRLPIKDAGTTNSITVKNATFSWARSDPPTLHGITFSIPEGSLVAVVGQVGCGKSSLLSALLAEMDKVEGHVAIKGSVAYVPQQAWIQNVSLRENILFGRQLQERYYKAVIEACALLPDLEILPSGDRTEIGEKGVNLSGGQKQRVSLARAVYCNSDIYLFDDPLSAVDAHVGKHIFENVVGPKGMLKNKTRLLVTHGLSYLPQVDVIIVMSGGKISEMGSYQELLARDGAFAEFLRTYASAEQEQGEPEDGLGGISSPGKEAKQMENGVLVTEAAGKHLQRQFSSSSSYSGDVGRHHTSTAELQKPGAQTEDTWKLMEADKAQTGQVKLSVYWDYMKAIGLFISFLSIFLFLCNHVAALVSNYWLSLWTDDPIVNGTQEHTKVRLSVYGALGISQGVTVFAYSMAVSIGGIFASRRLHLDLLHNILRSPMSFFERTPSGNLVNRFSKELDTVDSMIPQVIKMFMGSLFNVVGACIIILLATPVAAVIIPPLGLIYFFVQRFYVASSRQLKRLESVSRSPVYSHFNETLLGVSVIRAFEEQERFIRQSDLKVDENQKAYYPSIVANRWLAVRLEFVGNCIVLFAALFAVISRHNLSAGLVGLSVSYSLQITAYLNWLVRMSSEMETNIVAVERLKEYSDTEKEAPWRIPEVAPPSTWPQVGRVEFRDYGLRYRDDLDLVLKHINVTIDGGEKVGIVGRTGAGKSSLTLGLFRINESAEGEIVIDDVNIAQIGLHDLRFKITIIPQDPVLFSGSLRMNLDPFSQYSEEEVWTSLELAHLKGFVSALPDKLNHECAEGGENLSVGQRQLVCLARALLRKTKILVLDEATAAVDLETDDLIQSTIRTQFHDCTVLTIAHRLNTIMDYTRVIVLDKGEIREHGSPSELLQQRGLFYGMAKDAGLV

[4] = test system: choroid plexus epithelial cells; test: Permeability across choroid plexus epithelial cell (CPEC) monolayers on Transwell filters; conditions: apical versus basolateral direction
[5] = test system: intact choroid plexus tissue; conditions: intact choroid plexus tissue from guinea pig ref 47; cited from earlier work

SMILES: O=C(O)c1ccc2c(c1)C(=O)OC21c2ccc(O)cc2Oc2cc(O)ccc21 [5-carboxyfluorescein]
Papp (apparent permeability coefficient) [1]: 45 ×10⁻⁶ cm/s | Papp with opened tight junctions versus intact monolayer [1]: nearly doubling

SMILES: COc1cc([C@@H]2c3cc4c(cc3[C@@H](O[C@@H]3O[C@@H]5CO[C@@H](C)O[C@H]5[C@H](O)[C@H]3O)[C@H]3COC(=O)[C@H]23)OCO4)cc(OC)c1O [etoposide]
accumulation in CSF (Mrp1 [2]): increased accumulation

effect on FL-MTX transport from the basolateral to the apical side (Mrp1 [3]): did not significantly affect
SMILES: Nc1ccc(C(=O)NCC(=O)O)cc1 [p-aminohippuric acid]

effect on FL-MTX transport from the basolateral to the apical side (Mrp1 [3]): did not significantly affect
SMILES: CCCN(CCC)S(=O)(=O)c1ccc(C(=O)O)cc1 [probenecid]

preferred / directed transport across CP epithelial cells [4]: no directed transport
SMILES: COC(=O)c1ccccc1-c1c2ccc(=N)cc-2oc2cc(N)ccc12 [rhodamine 123]

SMILES: CC[C@]1(O)C[C@@H]2CN(CCc3c([nH]c4ccccc34)[C@@](C(=O)OC)(c3cc4c(cc3OC)N(C)[C@H]3[C@@](O)(C(=O)OC)[C@H](OC(C)=O)[C@]5(CC)C=CCN6CC[C@]43[C@@H]65)C2)C1 [vinblastine]
influence on uptake of the Pgp substrate ritonavir [5]: not influenced
